According to a compilation of properties of binary mixtures (doi:10.1016/j.jct.2009.06.023):

Experiment: xn = mol fraction of the nth substance listed
Conditions: 101 kPa

CCCC[n+]1ccn(C)c1.O=[N+]([O-])[O-] + CCCCO
viscosity [mPa·s]
Conditions	x2 = 0.129	x2 = 0.26	x2 = 0.361	x2 = 0.456	x2 = 0.565	x2 = 0.65	x2 = 0.753	x2 = 0.848
283.15 K	232	125	75.5	–	29	19.86	11.42	7.82
288.15 K	170.6	–	58.8	38.34	–	16.11	9.74	6.78
293.15 K	126.9	68.4	46.54	31.1	–	13.67	8.41	–
298.15 K	–	53.94	37.64	–	–	11.74	7.28	5.12
303.15 K	70.8	–	30.76	21.48	–	10.17	6.35	4.52
308.15 K	–	–	25.6	18.23	12.37	–	–	3.98
313.15 K	45.28	29.24	–	15.59	–	–	–	3.56
318.15 K	37.11	–	18.41	13.52	–	6.94	4.38	3.19
323.15 K	30.72	20.83	–	11.81	8.33	6.15	–	2.87
328.15 K	25.86	17.89	13.75	10.37	7.37	5.52	3.5	2.6
333.15 K	21.95	15.46	–	9.18	–	4.93	3.17	2.37

CCCC[n+]1ccn(C)c1.O=[N+]([O-])[O-] + CCCO
viscosity [mPa·s]
Conditions	x2 = 0.121	x2 = 0.257	x2 = 0.364	x2 = 0.471	x2 = 0.554	x2 = 0.673	x2 = 0.755	x2 = 0.857
283.15 K	243	125.8	72.5	42.71	27.88	15.61	10.26	6.16
288.15 K	–	95.7	56.76	–	23	13.2	8.83	5.29
293.15 K	130.9	68.2	45.1	28.35	19.19	–	7.6	4.64
298.15 K	99.8	53.67	36.43	23.48	16.29	–	6.56	4.05
303.15 K	74	43.04	29.92	19.71	13.94	8.54	5.77	3.59
308.15 K	58.48	35.02	24.93	–	12.03	7.43	5.04	3.21
313.15 K	47.07	28.93	–	14.44	10.5	6.49	4.49	2.87
318.15 K	38.59	24.21	17.89	–	–	5.78	3.97	2.59
323.15 K	–	20.58	15.41	–	8.16	5.09	3.58	2.35
328.15 K	26.75	17.65	13.41	–	7.2	4.58	–	–
333.15 K	22.73	15.31	11.77	8.61	–	4.14	2.94	1.96

CCCC[n+]1ccn(C)c1.O=[N+]([O-])[O-] + CCO
viscosity [mPa·s]
Conditions	x2 = 0.11	x2 = 0.254	x2 = 0.352	x2 = 0.447	x2 = 0.556	x2 = 0.663	x2 = 0.748	x2 = 0.852
283.15 K	260	120.4	66	–	21.24	10.88	7.45	3.9
288.15 K	190	90.7	–	28.43	17.96	–	–	3.47
293.15 K	139.3	–	41.09	23.18	15.21	8.84	–	3.08
298.15 K	–	53.62	32.83	19.16	13.06	–	–	2.75
303.15 K	86.8	43.08	26.28	–	11.34	6.71	4.28	–
308.15 K	–	35.32	–	13.73	9.83	–	3.76	2.31
313.15 K	–	–	17.78	11.88	9.05	5	3.38	2.13
318.15 K	38.81	–	15.48	10.26	8.02	4.49	3.08	–
323.15 K	32.11	20.84	14.06	8.91	6.96	4.04	2.81	1.75
328.15 K	26.9	17.9	12.51	–	6.08	3.7	2.57	1.65
333.15 K	22.91	–	10.88	7.7	5.49	3.39	2.38	1.59
